Assay results from patent US20110105397A1, “METHOD FOR TREATING HEART FAILURE WITH STRESSCOPIN-LIKE PEPTIDES” (priority 2009, published 2011).
Each block holds one molecule with its values, some of them ahead of it. Where no end group is shown, it is not given here.

Tests used:
CRHR1 = biological target: T1, CRHR1 (Homo sapiens, UniProt P34998); test: CRHR1 radioligand binding, [125I]-(Tyr0)-sauvagine; set-up: host or cells: cell membranes
T1 sequence (P34998 24-415): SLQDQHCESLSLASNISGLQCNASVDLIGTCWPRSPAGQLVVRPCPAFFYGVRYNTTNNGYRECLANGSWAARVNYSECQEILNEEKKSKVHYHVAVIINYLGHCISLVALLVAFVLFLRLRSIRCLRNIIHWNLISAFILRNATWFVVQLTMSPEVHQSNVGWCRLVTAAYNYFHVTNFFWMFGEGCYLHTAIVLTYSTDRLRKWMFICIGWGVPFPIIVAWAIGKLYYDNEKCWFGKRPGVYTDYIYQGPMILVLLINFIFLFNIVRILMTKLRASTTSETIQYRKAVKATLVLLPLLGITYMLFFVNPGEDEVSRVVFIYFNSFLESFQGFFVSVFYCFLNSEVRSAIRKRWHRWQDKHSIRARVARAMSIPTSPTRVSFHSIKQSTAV
From the text: The solution was then homogenized with a Polytron tissue grinder at a setting of 10 and 7×3 s (Brinkmann Instruments, Westbury, N.Y.). […] The bound radioactivity was separated by filtration using a Multiscreen Resist manifold (Millipore Corp., Billerica, Mass., U.S.A). The filters were washed three times with ice-cold PBS at pH 7.5 and radioactivity retained on the filters was quantified by its liquid scintillation measured by a TopCount counter (Packard BioScience, Boston, Mass., U.S.A). All experiments were performed in triplicate.

[1] = tested on: dogs with advanced heart failure; test: Hemodynamic, angiographic, echocardiographic profile in anaesthetized dogs with advanced heart failure, IV infusion; format: in vivo, dog
Experimental: The effects of h-SCP (SEQ ID NO:1) on cardiovascular function were also assessed in anaesthetized dogs with advanced, irreversible heart failure of ischemic etiology (Sabbah et al., 1991, Am. J. Physiol., vol. 260, pp. H1379-H1384; Sabbah et al., 1994, Circulation, vol. 98, pp. 2852-2859; Chandler et al., 2002, Circ. Res., vol. 91, pp. 278-280). Progressive, advanced heart failure was produced in mongrel dogs by multiple sequential intracoronary microembolization with polystyrene latex microspheres. Dose infusions of 2.2, 4.3, and 7.3 ng/kg/min were administered intravenously over 60 minutes just following or just prior to hemodynamic, angiographic, echocardiographic, and Doppler measurements using conventional hemodynamic, angiographic, echocardiographic, and radiographic methods. The h-SCP polypeptide (SEQ ID NO:1) produced dose- (infusion-) dependent increases in LVEF and SV and decreases in left ventricular end diastolic pressure (LVEDP), left ventricular pressure during isovolumic relaxation (LV-dP/dt), systemic vascular resistance (SVR), and left ventricular end-systolic volume (LVESV) that correlated with plasma concentration. No significant change in heart rate, peak systolic aortic blood pressure, LV+dP/dt, mean pulmonary artery pressure, mean pulmonary artery wedge pressure, right atrial pressure, or myocardial oxygen consumption were recorded following any of the 1 hour intravenous infusions (Table 18 and FIGS. 12 A & B). The improvement in LV systolic and diastolic function was not associated with the development of de novo ventricular arrhythmias.
In order to determine the threshold effective dose-infusion in dogs with advanced heart failure, a further study was performed at lower dose infusions. In addition, the opportunity was taken to explore whether the increase in LVEF produced by higher dose-infusions of 4.3 ng/kg/min would remain stable over a longer infusion period, i.e. 120 minutes.
In order to understand the potential cardiovascular effects of neutralizing antibody formation to h-SCP (SEQ ID NO:1), SV30 (SEQ ID No. 118), a competitive antagonist of CRHR2, was administered to dogs (N=4) with advanced heart failure. […] These experiments with SV30 indicate that baseline cardiovascular parameters in dogs with advanced heart failure were not dependent upon endogenous hormone stimulation of CRHR2. Similar findings have been reported in healthy conscious and anaesthetized rats (Gardiner et al., J. Pharmacol. Exp. Ther., 2007, vol 321, pp. 221-226).

human CRHR2 = biological target: T2, human CRHR2 (Homo sapiens, UniProt Q13324); test: CRHR2 radioligand binding, [125I]-anti-sauvagine-30, SK-N-MC membranes; conditions: CRHR2
T2 construct: expressed in transfected cells
T2 sequence (Q13324 1-411): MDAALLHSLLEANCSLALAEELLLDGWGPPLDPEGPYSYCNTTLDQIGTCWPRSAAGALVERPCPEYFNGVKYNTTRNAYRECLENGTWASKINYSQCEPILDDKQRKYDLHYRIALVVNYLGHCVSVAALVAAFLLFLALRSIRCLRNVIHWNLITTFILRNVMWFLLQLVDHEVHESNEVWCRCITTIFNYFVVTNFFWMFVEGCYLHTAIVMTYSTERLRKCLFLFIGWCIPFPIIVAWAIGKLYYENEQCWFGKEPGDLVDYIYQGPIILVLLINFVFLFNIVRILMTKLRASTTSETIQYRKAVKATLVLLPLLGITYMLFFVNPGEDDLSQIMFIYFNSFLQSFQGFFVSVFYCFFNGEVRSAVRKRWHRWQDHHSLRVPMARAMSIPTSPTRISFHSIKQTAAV
Experimental: The binding profile of h-SCP (SEQ ID NO:1) at CRHR2 was determined in radioligand binding studies in a membrane preparation of SK-N-MC cells stably transfected with human CRHR2 using [^125I]-anti-sauvagine-30 as the radiolabel. […] The solution was then homogenized with a Polytron tissue grinder at a setting of 10 and 7×3 s (Brinkmann Instruments, Westbury, N.Y.). […] The supernatant was re-centrifuged at 26,892×g for 25 min at 4° Celsius with the final pellet being re-suspended in assay buffer. […] For competition studies, cell membranes of […] volume were incubated with either 60 pM [^125I]-anti-sauvagine-30 in 50 μl volume for the CRHR2 assay or with)[^125I]-([…]-sauvagine for the CRHR1 assay in the presence of 15 μl of competing ligand for 120 min having a total volume of 150 μl. […] The bound radioactivity was separated by filtration using a Multiscreen Resist manifold (Millipore Corp., Billerica, Mass., U.S.A). The filters were washed three times with ice-cold PBS at pH 7.5 and radioactivity retained on the filters was quantified by its liquid scintillation measured by a TopCount counter (Packard BioScience, Boston, Mass., U.S.A). All experiments were performed in triplicate. Data from individual competition curves were expressed as the percentage of specific [^125I]-anti-sauvagine-30 or)[^125I]-([…]-sauvagine binding (B) within each experiment. […] The competition curve obtained with h-SCP (SEQ ID NO:1) was biphasic.

[2] = tested on: anaesthetized male Sprague-Dawley rats; test: Hemodynamics in anaesthetized rats (IV bolus); format: in vivo, rat; conditions: healthy anaesthetized rats
Experimental: The hemodynamic profile of h-SCP (SEQ ID NO:1) was determined in sodium pentobarbital anaesthetized male Sprague-Dawley rats (FIG. 10). A SPR-320 Mikro-Tip® integrated catheter-tipped micro-manometer (Millar Instruments, Houston, Tex., U.S.A.) was placed in the right femoral artery for blood pressure measurements, and another one directly in the left ventricle for LV pressure measurement. […] The changes in hemodynamic parameters induced by h-SCP (SEQ ID NO:1, full circle in FIG. 10) were blocked by pretreatment with anti-sauvagine-30 (SEQ ID NO:118, open circle in FIG. 10).

[3] = biological target: T3, human corticotrophin releasing hormone receptor type 2 (CRHR2) (human) (UniProt Q13324); test: radioligand competition against [125I]-anti-sauvagine-30, membranes of SK-N-MC cells with human CRHR2
T3 sequence (looked up): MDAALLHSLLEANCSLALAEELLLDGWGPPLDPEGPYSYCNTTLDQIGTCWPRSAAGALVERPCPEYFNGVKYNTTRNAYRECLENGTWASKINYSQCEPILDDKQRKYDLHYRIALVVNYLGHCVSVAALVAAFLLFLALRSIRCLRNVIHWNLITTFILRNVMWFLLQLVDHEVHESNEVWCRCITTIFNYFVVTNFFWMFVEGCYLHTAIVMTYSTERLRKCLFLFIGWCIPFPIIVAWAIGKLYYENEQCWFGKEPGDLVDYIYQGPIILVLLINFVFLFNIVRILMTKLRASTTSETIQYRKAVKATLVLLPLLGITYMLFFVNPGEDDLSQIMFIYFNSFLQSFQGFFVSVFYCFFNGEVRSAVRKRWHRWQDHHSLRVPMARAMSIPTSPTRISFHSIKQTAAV

[4] = biological target: T3, human corticotrophin releasing hormone receptor type 2 (CRHR2) (human); test: radioligand competition against [125I]-anti-sauvagine-30, CRHR2 membranes
[5] = biological target: T3, human corticotrophin releasing hormone receptor type 2 (CRHR2) (human); test: cell-based or functional assay
[6] = biological target: T4, human corticotrophin releasing hormone receptor type 1 (CRHR1) (human, UniProt P34998 24-415); test: cell-based or functional assay
T4 sequence (looked up): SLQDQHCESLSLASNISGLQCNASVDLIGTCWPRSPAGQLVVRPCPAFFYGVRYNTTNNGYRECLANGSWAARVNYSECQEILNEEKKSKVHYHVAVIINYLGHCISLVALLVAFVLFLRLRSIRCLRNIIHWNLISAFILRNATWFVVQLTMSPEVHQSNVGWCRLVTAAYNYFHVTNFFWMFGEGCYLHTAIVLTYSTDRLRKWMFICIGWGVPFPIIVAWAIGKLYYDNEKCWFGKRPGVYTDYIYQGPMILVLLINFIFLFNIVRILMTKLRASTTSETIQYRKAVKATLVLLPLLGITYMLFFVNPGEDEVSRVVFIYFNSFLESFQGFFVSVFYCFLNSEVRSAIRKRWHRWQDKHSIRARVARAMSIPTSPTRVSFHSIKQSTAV

[7] = biological target: T4, human corticotrophin releasing hormone …; test: radioligand competition against [125I]-(Tyr0)-sauvagine, CRHR1 assay, cell membranes
Experimental: Frozen cell pellets were defrosted on ice in 15 ml of assay buffer that was composed of 10 mM HEPES, 130 mM NaCl, 4.7 mM KCl, 5 mM MgCl₂, and 0.089 mM bacitracin at pH 7.2 and 21±3° Celsius. The solution was then homogenized with a Polytron tissue grinder at a setting of 10 and 7×3 s (Brinkmann Instruments, Westbury, N.Y.). The homogenate was centrifuged at 4° Celsius at 800×g for 5 min with the pellet being discarded. The supernatant was re-centrifuged at 26,892×g for 25 min at 4° Celsius with the final pellet being re-suspended in assay buffer. All binding assays were conducted in 96-well Multiscreen GF/B filter plates (Millipore, Billericay, Mass., U.S.A.) that were pre-soaked in assay buffer with 0.3% PEI for 1 hour. […]
The bound radioactivity was separated by filtration using a Multiscreen Resist manifold (Millipore Corp., Billerica, Mass., U.S.A). The filters were washed three times with ice-cold PBS at pH 7.5 and radioactivity retained on the filters was quantified by its liquid scintillation measured by a TopCount counter (Packard BioScience, Boston, Mass., U.S.A). […]
Data from individual competition curves were expressed as the percentage of specific [¹²⁵I]-anti-sauvagine-30 or)[¹²⁵I]-(Tyr⁰-sauvagine binding (B) within each experiment.

Molecule: CC[C@H](C)[C@H](NC(=O)[C@@H](NC(=O)[C@H](CC(=O)O)NC(=O)[C@H](CC(C)C)NC(=O)[C@H](CC(C)C)NC(=O)[C@H](CC(C)C)NC(=O)[C@H](CCCNC(=N)N)NC(=O)[C@H](CC(N)=O)NC(=O)[C@H](CC(N)=O)NC(=O)[C@H](C)NC(=O)[C@H](C)NC(=O)[C@H](CCC(N)=O)NC(=O)[C@H](CCC(N)=O)NC(=O)[C@H](CCCCN)NC(=O)[C@H](CCC(=O)O)NC(=O)[C@H](CCCCN)NC(=O)[C@H](CCC(=O)O)NC(=O)[C@H](CCC(N)=O)NC(=O)[C@H](CCCCN)NC(=O)[C@H](CCC(=O)O)NC(=O)[C@@H](NC(=O)[C@H](CCC(=O)O)NC(=O)[C@@H](NC(=O)[C@H](CCSC)NC(=O)[C@H](CCCCN)NC(=O)[C@H](CCCNC(=N)N)NC(=O)[C@H](CC(C)C)NC(=O)[C@H](CC(C)C)NC(=O)[C@H](Cc1c[nH]cn1)NC(=O)C(N)Cc1ccccc1)[C@@H](C)CC)[C@@H](C)CC)[C@@H](C)O)C(N)=O (stereo partly drawn) [SEQ ID NO: 118, FHLLRKMIEIEKQEKEKQQAANNRLLLDTI-NH2, reference compound]
nH (CRHR1): 1.00 ± 0.49
effect on cardiovascular parameters ([1]; CRHR2 blocking doses in dogs with advanced heart failure (N=4)): without effect on cardiovascular parameters
CO ([1]; Table 20, AS-30 alone): 1.44 ± 0.04 L/min
HR ([1]; Table 20, AS-30 alone): 79 ± 3 beats/min
LV+dP/dt ([1]; Table 20, AS-30 alone): 1675 ± 109 mmHg/sec
LVEDP ([1]; Table 20, AS-30 alone): 15 ± 1 mmHg
LVEDV ([1]; Table 20, AS-30 alone): 68 ± 2.7 mL
LVEF ([1]; Table 20, AS-30 alone): 27 ± 0%
LVESV ([1]; Table 20, AS-30 alone): 50 ± 1.9 mL
MPAP ([1]; Table 20, AS-30 alone): 16 ± 0.7 mmHg
PSAP ([1]; Table 20, AS-30 alone): 94 ± 5 mmHg
SV ([1]; Table 20, AS-30 alone): 18 ± 0.8 mL
nH (human CRHR2): 1.15 ± 0.12
effect on baseline hemodynamic parameters [2]: did not inhibit baseline parameters

pKI [3]: 5.71 -log10(M)
pIC50 (low affinity state) [4]: 6.6 -log10(M)
A50 (concentration required for 50% maximum effect), cAMP [5]: 0.4 nM
control pA50 across assay batches [5]: 9.47 to 9.74 -log10(M)
pA50 [5]: 9.4 -log10(M)
pA50 [6]: < 5 -log10(M)
pKI [7]: 4.6 -log10(M)
B1: Human stresscopin with amidated C-terminus (peptide)
peptide: TKFTLSLDVPTNIMNLLFNIAKAKNLRAQAAANAHLMAQI-NH2
notes: 40-amino-acid peptide; also called h-SCP
